Results from patent publication US20110053947A1, “Arylchalcogenoarylalkyl-substituted imidazolidine-2,4-diones, process for preparation thereof, medicaments comprising these compounds and use thereof” (SANOFI-AVENTIS, priority 2008, published 2011).
Structures can show the parent of a compound that is named as a salt.

What follows are compounds tested against T1, cannabinoid 1 receptor (hCB1R) (Homo sapiens, UniProt P21554) (assay: In vitro functional assay with recombinant cells (FLIPR), CB1). Conditions: recombinant HEK293 cells expressing CB1 and G-protein; intracellular Ca2+ change after reference agonist, 20 min preincubation; read-out: hCB1R: FLIPR; IC50.
T1 construct: expressed in transfected cells; host or cells: HEK293
T1 sequence (P21554 whole entry): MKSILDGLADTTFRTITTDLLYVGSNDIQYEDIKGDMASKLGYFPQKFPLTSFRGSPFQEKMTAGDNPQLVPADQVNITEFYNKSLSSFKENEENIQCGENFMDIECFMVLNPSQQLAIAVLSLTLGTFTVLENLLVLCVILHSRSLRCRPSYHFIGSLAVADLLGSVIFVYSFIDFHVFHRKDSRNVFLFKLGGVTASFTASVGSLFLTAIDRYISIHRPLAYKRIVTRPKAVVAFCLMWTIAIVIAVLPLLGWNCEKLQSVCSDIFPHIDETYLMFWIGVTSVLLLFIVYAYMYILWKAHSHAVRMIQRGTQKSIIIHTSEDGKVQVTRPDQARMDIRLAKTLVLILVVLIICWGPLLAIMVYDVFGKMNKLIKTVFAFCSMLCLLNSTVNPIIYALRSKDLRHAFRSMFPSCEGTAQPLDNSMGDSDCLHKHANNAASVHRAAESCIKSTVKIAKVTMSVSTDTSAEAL
Type: cell-based
Description: (§1) In vitro functional assays with recombinant cells:
(§2) Function-testing assays were performed by means of the FLIPR technique (“Fluorometric Imaging Plate Reader”, Molecular Devices Corp.).
(§3) To this end, ligand-induced changes in the intracellular concentration of Ca^2+ in recombinant HEK293 cells, which expressed both a cannabinoid receptor (CB1 or CB2) and G-protein Galphal6, were determined. For the studies, cells were sown into 96-well microtiter plates (60 000 cells/well) and left to grow overnight. The medium was removed and the cells were incubated in buffer which contained the fluorescent dye Fluo-4. After this loading with dye, the cells were washed, test substance was added dissolved in buffer, the mixture was incubated for 20 minutes, a known cannabinoid receptor agonist as a reference agonist was added in buffer and, finally, the changes in the intracellular Ca^2+ concentration were measured in the FLIPR unit.
Results were presented as the percentage change relative to the control (0%: analogous experiment without test substance and without reference agonist, i.e. only with buffer; 100%: analogous experiment without test substance, but with reference agonist in excess), and used to calculate dose/action curves, and IC50 values were determined.
The values of the functional assay compared to the cannabinoid 1 receptor including illustrative selectivities compared to the cannabinoid 2 receptor can be taken from table 1 which follows.
`CC1(C)C(=O)N(c2ccc(C#N)c(C(F)(F)F)c2)C(=O)N1Cc1ccccc1NC(=O)Nc1ccc(S(=O)(=O)O)cc1` [Example 2, 4-(3-{2-[3-(4-cyano-3-trifluoromethylphenyl)-5,5-dimethyl-2,4-dioxoimidazolidin-1-ylmethyl]phenyl}ureido)benzenesulfonic acid] gave an IC50 of 220 nM. `CC1(C)C(=O)N(c2ccc(C#N)c(C(F)(F)F)c2)C(=O)N1Cc1ccccc1NC(=O)Nc1ccc(C(=O)O)cc1` [Example 4, 4-(3-{2-[3-(4-Cyano-3-trifluoromethylphenyl)-5,5-dimethyl-2,4-dioxo-imidazolidin-1-ylmethyl]phenyl}ureido)benzoic acid] showed an IC50 of 109 nM. Work on `CC1(C)C(=O)N(c2ccc(C#N)c(C(F)(F)F)c2)C(=O)N1Cc1ccc(F)cc1NC(=O)Nc1ccnc(O)c1` [Example 43, 1-{2-[3-(4-cyano-3-trifluoromethylphenyl)-5,5-dimethyl-2,4-dioxoimidazolidin-1-ylmethyl]-5-fluorophenyl}-3-(2-hydroxypyridin-4-yl)urea] yielded an IC50 of 27 nM. `COC(=O)CSc1ccc(NC(=O)Nc2cc(F)ccc2CN2C(=O)N(c3ccc(C#N)c(C(F)(F)F)c3)C(=O)C2(C)C)cc1` [Example 49] was tested, and the IC50 was 2 nM. `CC1(C)C(=O)N(c2ccc(F)c(C(F)(F)F)c2)C(=O)N1Cc1ccc(Cl)cc1NC(=O)Nc1ccc(S(N)(=O)=O)cc1` [Example 69, 4-(3-{5-chloro-2-[3-(4-fluoro-3-trifluoromethylphenyl)-5,5-dimethyl-2,4-dioxoimidazolidin-1-ylmethyl]phenyl}ureido)benzenesulfonamide] was tested, and the IC50 was 11 nM. For `COc1ccc(CN2C(=O)N(c3ccc(F)c(C(F)(F)F)c3)C(=O)C2(C)C)c(NC(=O)Nc2ccc(S(N)(=O)=O)cc2)c1` [Example 70, 4-(3-{2-[3-(4-fluoro-3-trifluoromethylphenyl)-5,5-dimethyl-2,4-dioxoimidazolidin-1-ylmethyl]-5-methoxyphenyl}ureido)benzenesulfonamide], the IC50 was 14 nM.

What follows are compounds tested against T2, cannabinoid 2 receptor (hCB2R) (Homo sapiens, UniProt P34972) (assay: In vitro functional assay with recombinant cells (FLIPR), CB2). Conditions: recombinant HEK293 cells expressing CB2 and G-protein; intracellular Ca2+ change after reference agonist, 20 min preincubation; read-out: hCB2R: FLIPR; IC50.
T2 construct: expressed in transfected cells; host or cells: HEK293
T2 sequence (P34972 whole entry): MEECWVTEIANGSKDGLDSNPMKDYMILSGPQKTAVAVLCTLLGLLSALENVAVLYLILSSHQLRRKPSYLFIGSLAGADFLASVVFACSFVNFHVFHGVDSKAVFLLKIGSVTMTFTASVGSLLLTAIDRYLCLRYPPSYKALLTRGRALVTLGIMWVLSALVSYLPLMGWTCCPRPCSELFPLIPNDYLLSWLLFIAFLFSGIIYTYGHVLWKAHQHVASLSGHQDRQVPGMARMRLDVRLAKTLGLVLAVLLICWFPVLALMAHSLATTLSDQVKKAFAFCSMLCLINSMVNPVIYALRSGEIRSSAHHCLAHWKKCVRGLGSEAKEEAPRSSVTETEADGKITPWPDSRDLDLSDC
Type: cell-based
Description: as §1, §2, §3
In the case of `CC1(C)C(=O)N(c2ccc(C#N)c(C(F)(F)F)c2)C(=O)N1Cc1ccccc1NC(=O)Nc1ccc(S(=O)(=O)O)cc1` [Example 2, 4-(3-{2-[3-(4-cyano-3-trifluoromethylphenyl)-5,5-dimethyl-2,4-dioxoimidazolidin-1-ylmethyl]phenyl}ureido)benzenesulfonic acid], the IC50 is reported as > 10000 nM. For `CC1(C)C(=O)N(c2ccc(C#N)c(C(F)(F)F)c2)C(=O)N1Cc1ccccc1NC(=O)Nc1ccc(C(=O)O)cc1` [Example 4, 4-(3-{2-[3-(4-Cyano-3-trifluoromethylphenyl)-5,5-dimethyl-2,4-dioxo-imidazolidin-1-ylmethyl]phenyl}ureido)benzoic acid], the IC50 was > 10000 nM.

Each compound was assayed against T3, CHO-K1/cannabinoid CB1 (hCB1R) (Homo sapiens, UniProt P21554) (assay: Binding to the CB1 receptor ([3H]-SR141716A displacement)). Conditions: [3H]-SR141716A 0.5 nM; Ki from IC50 and Kd by Cheng-Prusoff; average of double determination; read-out: hCB1R; Bindung Ki.
T3 construct: expressed in transfected cells; host or cells: CHO-K1
T3 sequence (P21554 whole entry): as the sequence (P21554 whole entry) above
Description: Binding to the CB 1 Receptor:
Test compounds: The compounds (3 μl, 10 mM, 100% DMSO), pipetted into 96-well PP microtiter plates, were diluted with 27 μl of 100% DMSO (dimethyl sulfoxide). Proceeding from this solution, further 3-fold dilution steps were undertaken by transferring 10 μl in each case to a new PP microtiter plate and adding a further 20 μl of 100% DMSO. In each case 6 μA of these solutions were transferred into new 96-well PP microtiter plates and made up with 144 μl of assay buffer. The end concentrations ranged from 10 μM to 0.005 μM. Negative control: AM 251, dissolved in assay buffer with 1% DMSO, was added to the dilution series in the microtiter plates as a control. The end concentration was 1 μM. Blank control: assay buffer with 1% DMSO was added to the dilution series of the microtiter plates as a blank control.
Summary of the Assay Parameters:
The values were calculated using the corrected raw data.
The values reported were obtained as average values of a double determination. The IC50 values were calculated from the measurements with the program Xlfit, formula 205. Ki values were obtained from the IC50 and Kd values utilizing the Cheng-Prusoff equation: […]
Literature: Cheng, Y.-C., and Prusoff, W. H. (1973) Biochem. Pharmacol 22, 3099-3108 Results: Ki values of example compounds; Table 2: […]
`CC1(C)C(=O)N(c2ccc(C#N)c(C(F)(F)F)c2)C(=O)N1Cc1ccccc1NC(=O)Nc1ccc(F)cc1F` [Example 7, 1-{2-[3-(4-cyano-3-trifluoromethylphenyl)-5,5-dimethyl-2,4-dioxoimidazolidin-1-ylmethyl]phenyl}-3-(2,4-difluorophenyl)urea] was tested, and the Ki was 73 nM. Work on `CC1(C)C(=O)N(c2ccc(C#N)c(C(F)(F)F)c2)C(=O)N1Cc1ccccc1NC(=O)Nc1ccccc1` [Example 9, 1-{2-[3-(4-cyano-3-trifluoromethylphenyl)-5,5-dimethyl-2,4-dioxoimidazolidin-1-ylmethyl]phenyl}-3-phenylurea] yielded a Ki of 32 nM. In the case of `C[S+]([O-])c1ccc(NC(=O)Nc2ccccc2CN2C(=O)N(c3ccc(C#N)c(C(F)(F)F)c3)C(=O)C2(C)C)cc1` (stereo not drawn) [Example 12, 1-{2-[3-(4-cyano-3-trifluoromethylphenyl)-5,5-dimethyl-2,4-dioxoimidazolidin-1-ylmethyl]phenyl}-3-(4-methanesulfinylphenyl)urea], the Ki is reported as 11 nM. Compound `CC1(C)C(=O)N(c2ccc(C#N)c(C(F)(F)F)c2)C(=O)N1Cc1ccccc1NC(=O)Nc1ccc(S(C)(=O)=O)cc1` [Example 13, 1-{2-[3-(4-cyano-3-trifluoromethylphenyl)-5,5-dimethyl-2,4-dioxoimidazolidin-1-ylmethyl]phenyl}-3-(4-methanesulfonylphenyl)urea] has a Ki of 7 nM. `CC1(C)C(=O)N(c2ccc(C#N)c(C(F)(F)F)c2)C(=O)N1Cc1ccccc1NS(=O)(=O)Cc1ccc(F)cc1F` [Example 15, N-{2-[3-(4-cyano-3-trifluoromethylphenyl)-5,5-dimethyl-2,4-dioxoimidazolidin-1-ylmethyl]phenyl}-C-(2,4-difluorophenyl)methanesulfonamide] was tested, and the Ki was 58 nM. Compound `CC1(C)C(=O)N(c2ccc(C#N)c(C(F)(F)F)c2)C(=O)N1Cc1ccc(F)cc1NC(=O)Nc1ccc(C(=O)O)cc1` [Example 18, 4-(3-{2-[3-(4-Cyano-3-trifluoromethylphenyl)-5,5-dimethyl-2,4-dioxoimidazolidin-1-ylmethyl]-5-fluorophenyl}ureido)benzoic acid] has a Ki of 68 nM. In the case of `CC1(C)C(=O)N(c2ccc(C#N)c(C(F)(F)F)c2)C(=O)N1Cc1ccc(F)cc1NC(=O)Nc1cc(Cl)nc(Cl)c1` [Example 21, 1-{2-[3-(4-cyano-3-trifluoromethylphenyl)-5,5-dimethyl-2,4-dioxoimidazolidin-1-ylmethyl]-5-fluorophenyl}-3-(2,6-dichloropyridin-4-yl)urea], the Ki is reported as 34 nM. For `CC1(C)C(=O)N(c2ccc(F)c(C(F)(F)F)c2)C(=O)N1Cc1ccc(F)cc1NC(=O)Nc1ccc(N)cc1` [Example 23, 1-(4-Aminophenyl)-3-{5-fluoro-2-[3-(4-fluoro-3-trifluoromethylphenyl)-5,5-dimethyl-2,4-dioxoimidazolidin-1-ylmethyl]phenyl}urea hydrochloride], the Ki was 17 nM. For `CC1(C)C(=O)N(c2ccc(F)c(C(F)(F)F)c2)C(=O)N1Cc1ccc(F)cc1NC(=O)Nc1ccc(S(N)(=O)=O)cc1` [Example 24, 4-(3-{5-fluoro-2-[3-(4-fluoro-3-trifluoromethylphenyl)-5,5-dimethyl-2,4-dioxoimidazolidin-1-ylmethyl]phenyl}ureido)benzenesulfonamide], the Ki was 9 nM. In the case of `CCOP(=O)(OCC)c1ccc(NC(=O)Nc2cc(F)ccc2CN2C(=O)N(c3ccc(F)c(C(F)(F)F)c3)C(=O)C2(C)C)cc1` [Example 32, Diethyl [4-(3-{5-fluoro-2-[3-(4-fluoro-3-trifluoromethylphenyl)-5,5-dimethyl-2,4-dioxoimidazolidin-1-ylmethyl]phenyl}ureido)phenyl]phosphonate], the Ki is reported as 40 nM. With `COC(=O)c1ccc(NC(=O)Nc2cc(F)ccc2CN2C(=O)N(c3ccc(C#N)c(C(F)(F)F)c3)C(=O)C2(C)C)nc1` [Example 42, methyl 6-(3-{2-[3-(4-cyano-3-trifluoromethylphenyl)-5,5-dimethyl-2,4-dioxoimidazolidin-1-ylmethyl]-5-fluorophenyl}ureido)nicotinate] the Ki was 35 nM. Work on `CC1(C)C(=O)N(c2ccc(C#N)c(C(F)(F)F)c2)C(=O)N1Cc1ccc(F)cc1NC(=O)Nc1ccnc(O)c1` [Example 43, 1-{2-[3-(4-cyano-3-trifluoromethylphenyl)-5,5-dimethyl-2,4-dioxoimidazolidin-1-ylmethyl]-5-fluorophenyl}-3-(2-hydroxypyridin-4-yl)urea] yielded a Ki of 17 nM. `CCS(=O)(=O)c1ccc(NC(=O)Nc2cc(F)ccc2CN2C(=O)N(c3ccc(C#N)c(C4CC4)c3)C(=O)C2(C)C)cc1` [Example 45, 1-{2-[3-(4-Cyano-3-cyclopropylphenyl)-5,5-dimethyl-2,4-dioxoimidazolidin-1-ylmethyl]-5-fluorophenyl}-3-(4-ethanesulfonylphenyl)urea] showed a Ki of 6 nM. In the case of `COC(=O)CS(=O)(=O)c1ccc(NC(=O)Nc2cc(F)ccc2CN2C(=O)N(c3ccc(C#N)c(C4CC4)c3)C(=O)C2(C)C)cc1` [Example 46, Methyl [4-(3-{2-[3-(4-cyano-3-cyclopropylphenyl)-5,5-dimethyl-2,4-dioxoimidazolidin-1-ylmethyl]-5-fluorophenyl}ureido)benzenesulfonyl]acetate], the Ki is reported as 7 nM. `COC(=O)CSc1ccc(NC(=O)Nc2cc(F)ccc2CN2C(=O)N(c3ccc(C#N)c(C(F)(F)F)c3)C(=O)C2(C)C)cc1` [Example 49] was tested, and the Ki was 11 nM. `COC(=O)c1ccc(NC(=O)Nc2cc(F)ccc2CN2C(=O)N(c3ccc(F)c(C(F)(F)F)c3)C(=O)C2(C)C)cc1` [Example 59, methyl 4-(3-{5-fluoro-2-[3-(4-fluoro-3-trifluoromethylphenyl)-5,5-dimethyl-2,4-dioxoimidazolidin-1-ylmethyl]phenyl}ureido)benzoate] showed a Ki of 29 nM.
